Structures are written as SMILES. Structures can show the parent of a compound that is named as a salt. Some results are limits rather than exact numbers.

T1 sequence (P27487 whole entry): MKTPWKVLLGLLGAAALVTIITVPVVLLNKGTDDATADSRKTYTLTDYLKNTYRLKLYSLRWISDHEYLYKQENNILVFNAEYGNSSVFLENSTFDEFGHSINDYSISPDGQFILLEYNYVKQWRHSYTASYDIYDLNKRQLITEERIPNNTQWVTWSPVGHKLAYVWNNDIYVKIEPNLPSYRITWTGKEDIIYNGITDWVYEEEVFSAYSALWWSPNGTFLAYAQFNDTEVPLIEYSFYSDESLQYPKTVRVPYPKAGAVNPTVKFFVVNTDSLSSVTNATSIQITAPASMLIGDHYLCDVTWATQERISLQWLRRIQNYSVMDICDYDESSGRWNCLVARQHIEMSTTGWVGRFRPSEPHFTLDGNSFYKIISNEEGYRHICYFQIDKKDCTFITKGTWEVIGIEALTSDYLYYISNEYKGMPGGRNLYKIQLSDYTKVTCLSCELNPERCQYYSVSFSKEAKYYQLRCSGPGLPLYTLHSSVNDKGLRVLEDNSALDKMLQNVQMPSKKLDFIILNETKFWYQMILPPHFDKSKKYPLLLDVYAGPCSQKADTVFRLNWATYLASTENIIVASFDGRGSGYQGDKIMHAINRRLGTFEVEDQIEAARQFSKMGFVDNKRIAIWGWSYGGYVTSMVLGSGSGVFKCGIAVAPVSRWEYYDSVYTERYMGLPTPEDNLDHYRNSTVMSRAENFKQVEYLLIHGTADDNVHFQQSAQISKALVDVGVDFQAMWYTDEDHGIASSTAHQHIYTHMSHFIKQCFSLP

Test system in one data set: not given
Assay: not given
Details: not given
`N#C[C@@H]1CCCN1C(=O)CNC1C2CCC1CN(c1ncccn1)C2` (stereo partly drawn) (as salt: hydrochloride) [Example 40, (2S)-1-[N-(3-pyrimidin-2-yl-3-azabicyclo[3.2.1]oct-8-yl)glycyl]pyrrolidine-2-carbonitrile]: the melting point is 149 to 152 °C. With `N#C[C@@H]1CC(F)(F)CN1C(=O)CNC1C2CCC1CN(c1ncccn1)C2` (stereo partly drawn), the melting point was 50 to 52 °C.

Consider `CC1(NCC(=O)N2CC(F)(F)C[C@H]2C#N)CC2CCC(C1)N2c1ncccn1.Cl.Cl` (stereo partly drawn), for which the melting point fell in the range of 169 to 172 °C.

The molecule `N#Cc1ccc(CNC23CC4CC(CC(NCC(=O)N5CC(F)(F)C[C@H]5C#N)(C4)C2)C3)cc1` (as salt: hydrochloride) [Example 27, (2S)-1-(N-{3-[(4-cyanobenzyl)amino]-1-adamantyl}glycyl)-4,4-difluoropyrrolidine-2-carbonitrile] returned a melting point of 226 to 231 °C. The molecule `N#C[C@H]1COCN1C(=O)CNC12CC3CC(C1)CC(Nc1ncccn1)(C3)C2` (as salt: hydrochloride) [Example 9, (4S)-3-{N-[3-(pyrimidin-2-ylamino)-1-adamantyl]glycyl}-1,3-oxazolidine-4-carbonitrile] yielded a melting point of 205 to 207 °C.

In turn, `Cl.Cl.N#C[C@@H]1CC(F)(F)CN1C(=O)CNC1C2CCC1CN(c1ncccn1)C2` (stereo partly drawn) registered a melting point greater than 300 °C.

The next data set concerns the target T1, DPP-IV enzyme (solubilized crude extractum from CaCo/Tc-7 cells) (Homo sapiens, UniProt P27487).
T1 construct: solubilized crude extractum from CaCo/Tc-7 cells; endogenous in cells; host or cells: CaCo/Tc-7 cells (solubilized crude extract)
In words: DPP-IV enzyme inhibitory activity, fluorometric H-Gly-Pro-AMC assay. Type of data set: biochemical. The settings on record: H-Gly-Pro-AMC substrate 250 μM final; 60 min preincubation at 37° C.; 30 min reaction at 37° C.; Tris-HCl pH=7.5. How it is done:
DPP-IV enzyme inhibitory activties of the compounds with the general formula (I) were determined by the following method: […]
Applied Conditions of the Assay:
The reaction of the DPP-IV enzyme and the H-Gly-Pro-AMC substrate is recorded by the liberation of AMC (7-amino-4-methylcoumarin) at 37° C. in 100 mM Tris-HCl, pH=7.5 (assay buffer). Standard curve of AMC is linear up to 31.25 μM concentration, therefore we used the relative fluorescence unit (RFU) of the AMC formed. It is detected using 360 nm excitation and 465 emmission filters (integration time 30 μs, Gain 25, No. of Flashes 50) by Tecan Spectrofluor Plus plate reader. Under these conditions enzyme reaction is linear for at least 30 min, and the enzyme dependence is linear up to 2.5 μg protein (up to 700 RFU). Using 1-0.8 μg of extracted protein Km for H-Gly-Pro-AMC is 50 μM. Higher than 500 μM substrate concentration caused fluorescent detection problems (inner filter effect) that can be solved by dilution of the samples.
The assay is designed to detect as efficiently as possible the active inhibitors using a 60 min preincubation time at 37° C. The assay is conducted by adding 0.8-1 μg protein extract in 10 μl enzyme sulution (using assay buffer: 100 mM Tris-HCl, pH=7.5) to the wells containing the test compounds in 10 μl volume and the 55 μl assay buffer (65 μl assay buffer in the case of controlls). After the preincubation period, the reaction is started by the addition of 25 μlmM H-Gly-Pro-AMC substrate solution (250 μM final concentration). The final test volume is 100 μl and the test solution contains 1% DMSO coming from the test compounds solution. Reaction time is 30 min at 37° C., and the reaction is stopped by adding 300 μl 1M Na-acetate buffer, pH=4.2. The fluorescence (RFU) of AMC formed is detected using 360 nm excitation and 465 emission filters in Tecan spectrofluor Plus plate reader (30 μs integration time, Gain 25 No. of Flashes 50). Inhibition % are calculated using the RFU of control and RFU of blank.
As for `N#Cc1ccc(CNC23CC4CC(CC(NCC(=O)N5CC(F)(F)C[C@H]5C#N)(C4)C2)C3)cc1` [Example 27, (2S)-1-(N-{3-[(4-cyanobenzyl)amino]-1-adamantyl}glycyl)-4,4-difluoropyrrolidine-2-carbonitrile], the IC50 was found to be 16 nM. The same measure, in the same setting: the same measure for `N#C[C@@H]1CCCN1C(=O)CNC1C2CCC1CN(c1ncccn1)C2` (stereo partly drawn) [Example 40, (2S)-1-[N-(3-pyrimidin-2-yl-3-azabicyclo[3.2.1]oct-8-yl)glycyl]pyrrolidine-2-carbonitrile]: 30 nM.

`N#C[C@H]1COCN1C(=O)CNC12CC3CC(C1)CC(Nc1ncccn1)(C3)C2` [Example 9, (4S)-3-{N-[3-(pyrimidin-2-ylamino)-1-adamantyl]glycyl}-1,3-oxazolidine-4-carbonitrile] came in with an IC50 of 21 nM. This IC50 and that of the molecule before are within 1.5-fold of each other.

In general, melting point refers to the temperature, or range, at which the solid turns liquid. As a reminder, the IC50 is the concentration that inhibits the measured activity by half. A higher IC50 goes with lower potency.

These data come from patent publication US7652021B2, “Compounds useful for DPP-IV enzyme inhibition” (Sanofi-Aventis, priority 2003, dated 2010).
